pIC50: −log10 of the molar value. Structures can show the parent of a compound that is named as a salt.
Key:
A375res cells [1] = tested on: A375res cells
From the text: (§1) A vemurafenib-resistant cell line is generated by chronic treatment of the human melanoma cell line A375 (ATCC) harboring the B-Raf V600E mutation with increasing concentrations PLX4720.

A375res cells [2] = experiment: Proliferation assay in vemurafenib-resistant A375res melanoma cells; details: Homo sapiens, 72 h, read-out: absolute IC50 values
From the text: as §1

| SMILES | IC50 shift A375 to A375res (A375res cells [1]) | pIC50 (A375res cells [2]) |
| --- | --- | --- |
| CNc1cc2nc(C)c(-c3cc(NC(=O)NCCCC(C)(C)OC)c(F)cc3C)cc2cn1 [Example 33, 1-(2-fluoro-4-methyl-5-(2-methyl-7-(methylamino)-1,6-naphthyridin-3-yl)phenyl)-3-(4-methoxy-4-methylpentyl)urea hydrochloride] | 0.5-4.9 fold | 6.30 to 8.05 |
| Cc1cc(F)c(NC(=O)NCCC(C)(C)C#N)cc1-c1cc2cnc(N)cc2nc1C [Example 44, 1-(5-(7-amino-2-methyl-1,6-naphthyridin-3-yl)-2-fluoro-4-methylphenyl)-3-(3-cyano-3-methylbutyl)urea] | 0.5-4.9 fold | 6.30 to 8.05 |
| CNc1cc2nc(C)c(-c3cc(NC(=O)NCCC4(C)CC4)c(F)cc3C)cc2cn1 [Example 27, 1-(2-fluoro-4-methyl-5-(2-methyl-7-(methylamino)-1,6-naphthyridin-3-yl)phenyl)-3-(2-(1-methylcyclopropyl)ethyl)urea hydrochloride] | 0.5-4.9 fold | 6.30 to 8.05 |
| CNc1cc2nc(C)c(-c3cc(NC(=O)N[C@H]4CC[C@@](C)(C#N)CC4)c(F)cc3C)cc2cn1 [Example 26, 1-(cis-4-cyano-4-methylcyclohexyl)-3-(2-fluoro-4-methyl-5-(2-methyl-7-(methylamino)-1,6-naphthyridin-3-yl)phenyl)urea] | 0.5-4.9 fold | 6.30 to 8.05 |
| CCOC(C)(C)CCNC(=O)Nc1cc(-c2cc3cnc(NC)cc3nc2C)c(C)cc1F [Example 30, 1-(3-ethoxy-3-methylbutyl)-3-(2-fluoro-4-methyl-5-(2-methyl-7-(methylamino)-1,6-naphthyridin-3-yl)phenyl)urea hydrochloride] | 0.5-4.9 fold | 6.30 to 8.05 |
| CNc1cc2nc(C)c(-c3cc(NC(=O)N[C@H]4CC[C@](C)(C#N)CC4)c(F)cc3C)cc2cn1 [Example 25, 1-(trans-4-cyano-4-methylcyclohexyl)-3-(2-fluoro-4-methyl-5-(2-methyl-7-(methylamino)-1,6-naphthyridin-3-yl)phenyl)urea] | 0.5-4.9 fold | 6.30 to 8.05 |
| CNc1cc2ncc(-c3cc(NC(=O)NCCC(C)(C)OC)c(F)cc3C)cc2cn1 [Example 32, 1-(2-fluoro-4-methyl-5-(7-(methylamino)-1,6-naphthyridin-3-yl)phenyl)-3-(3-methoxy-3-methylbutyl)urea] | 0.5-4.9 fold | 6.30 to 8.05 |

More lines, now with the values ahead:

| IC50 shift A375 to A375res (A375res cells [1]) | pIC50 (A375res cells [2]) | SMILES |
| --- | --- | --- |
| 0.5-4.9 fold | 6.30 to 8.05 | COC(C)(C)CCNC(=O)Nc1cc(-c2cc3cnc(N)cc3nc2C)c(C)cc1F [Example 80, 1-(5-(7-amino-2-methyl-1,6-naphthyridin-3-yl)-2-fluoro-4-methylphenyl)-3-(3-methoxy-3-methylbutyl)urea hydrochloride] |
| 0.5-4.9 fold | 6.30 to 8.05 | Cc1cc(F)c(NC(=O)NC2CCCCCC2)cc1-c1cc2cnc(N)cc2nc1C [Example 82, 1-(5-(7-amino-2-methyl-1,6-naphthyridin-3-yl)-2-fluoro-4-methylphenyl)-3-cycloheptylurea] |
| 0.5-4.9 fold | 6.30 to 8.05 | Cc1cc(F)c(NC(=O)NCCC(C)(C)F)cc1-c1cnc2cc(N)ncc2c1 [Example 81, 1-(5-(7-amino-1,6-naphthyridin-3-yl)-2-fluoro-4-methylphenyl)-3-(3-fluoro-3-methylbutyl)urea] |
| 0.5-4.9 fold | 6.30 to 8.05 | CNc1cc2nc(C)c(-c3cc(NC(=O)NCC(O)C(F)(F)F)c(F)cc3C)cc2cn1 (stereo not drawn) [Example 61, 1-(2-fluoro-4-methyl-5-(2-methyl-7-(methylamino)-1,6-naphthyridin-3-yl)phenyl)-3-(3,3,3-trifluoro-2-hydroxypropyl)urea] |
| 0.5-4.9 fold | 6.30 to 8.05 | Cc1nc2cc(NC(=O)C3CC3)ncc2cc1-c1cc(NC(=O)NCCC2CC2)c(F)cc1F [Example 123, N-(3-(5-(3-(2-cyclopropylethyl)ureido)-2,4-difluorophenyl)-2-methyl-1,6-naphthyridin-7-yl)cyclopropanecarboxamid hydrochloride] |
